From patent publication US11999727B2 (Tango Therapeutics, Inc., priority 2020, dated 2024) come the findings set out here.

Where two headings read alike, the source gives them in different places. A value given as a limit tells only on which side of the number the result lay.

In test [1] the test system is HAP1 MTAP-intact cell line. Description: SDMA in-cell western assay, HAP1 MTAP-intact. Type of test: cell-based. The note with it: HAP1 MTAP-intact, read-out: MTAP HAP1 intact IC50. In outline:
(§1)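 Isogenic HAP1 pair: the MTAP-intact line expresses endogenous MTAP, and the deleted line is MTAP-null. Symmetric dimethylarginine was detected by in-cell western and IC50 values derived for each line.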

Test [2] relates to HAP1 MTAP-deleted cell line. Description: SDMA in-cell western assay, HAP1 MTAP-deleted. The note with it: for IC50: HAP1 MTAP-deleted; for MTAP intact/deleted ratio: IC50 ratio HAP1 MTAP-intact / HAP1 MTAP-deleted. Type of test: cell-based. In outline: as §1
In test [3] the target is T1, PRMT5 (Homo sapiens, UniProt O14744).
T1 construct: purchased Viva (custom protein)
The experiment in a line: PRMT5 biochemical IC50 assay with SAM as cofactor. The note with it: PRMT5, SAM as cofactor; read-out: SAM IC50.

Test [4] has as its target T1, PRMT5. Description: PRMT5 biochemical IC50 assay with MTA as cofactor. The note with it: PRMT5, MTA as cofactor; read-out: MTA IC50.
For test [5], the system named is HAP1 MTAP-deleted cell line. The experiment in a line: Viability assay, MTAP-deleted cell line. Type of test: cell-based. The note with it: read-out: HAP1 MTAP deleted viability. The source says: Table 1 additionally indicates IC50 values in a viability assay for the MTAP-deleted cell line (column 10), indicating the effect of treatment with compound on cell survival.

The target of test [6] is T1, PRMT5. Description: PRMT5 biochemical IC50 assay with no cofactor. The note with it: PRMT5, no cofactor. The source says: Table 1 indicates IC50 values (μM) against PRMT5 for exemplary compounds in the presence of SAM as cofactor, with no cofactor, and with MTA as cofactor, respectively (columns 4-6). […] Ki values can be calculated from the IC50 values as described in the Examples section. As detailed in the Examples section, for the assay performed in the presence of SAM, IC50=Ki×1.5 (Ki=IC50/1.5).

Setting [7] is: Homo sapiens, HAP1, SDMA in-cell western.
[8] abbreviates: Homo sapiens, HAP1, SDMA in-cell western, read-out: HAP 1 MTAP deleted IC50.
The mark [9] stands for this setting: Homo sapiens, HAP1, viability assay, MTAP-deleted cell line.
Setting [10] is: read-out: No Cofactor/ rel IC50.
Where [11] appears, read: Homo sapiens, HAP1, SDMA in-cell western, read-out: HAP1 MTAP deleted IC50.
Where [12] appears, read: Homo sapiens, HAP1, viability assay, HAP1 MTAP-deleted.
[13] abbreviates: Homo sapiens, HAP1, viability, HAP1 MTAP-deleted cell line.

T1 sequence (O14744 whole entry): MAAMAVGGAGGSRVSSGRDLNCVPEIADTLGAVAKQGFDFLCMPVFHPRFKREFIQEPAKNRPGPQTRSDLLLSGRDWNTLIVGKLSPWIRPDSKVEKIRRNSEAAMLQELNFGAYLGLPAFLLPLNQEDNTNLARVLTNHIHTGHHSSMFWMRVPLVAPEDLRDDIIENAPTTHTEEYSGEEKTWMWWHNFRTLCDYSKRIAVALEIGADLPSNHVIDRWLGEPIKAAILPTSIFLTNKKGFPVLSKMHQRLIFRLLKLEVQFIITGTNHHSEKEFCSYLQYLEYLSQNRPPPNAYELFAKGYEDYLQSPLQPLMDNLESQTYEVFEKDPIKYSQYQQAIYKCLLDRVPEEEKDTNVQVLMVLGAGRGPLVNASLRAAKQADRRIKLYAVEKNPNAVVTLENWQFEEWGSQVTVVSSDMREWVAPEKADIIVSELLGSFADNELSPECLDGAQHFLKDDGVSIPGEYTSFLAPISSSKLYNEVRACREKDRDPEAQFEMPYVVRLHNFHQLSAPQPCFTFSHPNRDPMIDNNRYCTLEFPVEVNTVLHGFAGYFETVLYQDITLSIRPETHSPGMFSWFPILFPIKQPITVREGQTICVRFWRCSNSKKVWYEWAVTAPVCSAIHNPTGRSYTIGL
T1 sequence (Q9BQA1 whole entry partner): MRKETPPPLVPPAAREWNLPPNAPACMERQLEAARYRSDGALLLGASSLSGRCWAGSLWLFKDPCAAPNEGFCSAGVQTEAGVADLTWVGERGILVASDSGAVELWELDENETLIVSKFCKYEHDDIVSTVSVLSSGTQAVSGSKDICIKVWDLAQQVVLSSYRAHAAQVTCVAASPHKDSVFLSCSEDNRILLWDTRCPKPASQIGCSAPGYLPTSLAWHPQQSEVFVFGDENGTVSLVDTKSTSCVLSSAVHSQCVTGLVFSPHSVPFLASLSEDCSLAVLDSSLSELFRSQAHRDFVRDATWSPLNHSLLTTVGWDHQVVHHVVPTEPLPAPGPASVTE

Consider `Cc1cc(NC(=O)C(=O)N2C[C@H](C)CC[C@H]2c2ccc(NS(C)(=O)=O)nc2)cnc1N` (single isomer, unassigned) [Compound 980], for which the IC50 in test [1] (setting [7]) is more than 1000 nM; in test [2] (setting [8]), more than 1000 nM; at PRMT5 [3] it was 50 to 500 nM; at PRMT5 [4], 50 to 500 nM; in test [5] (setting [9]) it was more than 10 µM; at PRMT5 [6] (read-out: No Cofactor/rel IC50), 50 to 500 nM. In test [2] (SDMA in-cell western), the MTAP intact/deleted ratio entry is reported as “B (an IC50 ratio greater than or equal to 3 fold but lower than 10 fold)”.
`Cc1cc(NC(=O)C(=O)N2CC(C)(C)CCC2c2ccccc2)cnc1N` (single isomer, unassigned) [Compound 58, N-(6-amino-5-methylpyridin-3-yl)-2-(5,5-dimethyl-2-phenylpiperidin-1-yl)-2-oxoacetamide]: the IC50 in test [1] (SDMA in-cell western) is more than 1000 nM; in test [2] (SDMA in-cell western, read-out: HAP 1 MTAP deleted IC50), more than 1000 nM; at PRMT5 [3] it was more than 500 nM; at PRMT5 [4], more than 500 nM; in test [5] (viability assay, MTAP-deleted cell line) it was more than 10 µM; on PRMT5 [6] (setting [10]), more than 500 nM. Further, in test [2] (SDMA in-cell western), the “MTAP intact/deleted ratio” value is reported as “C (an IC50 ratio of less than 3 fold)”.
With `COc1cc([C@@H]2CC[C@@H](C)CN2C(=O)C(=O)Nc2cncc(C(N)=O)c2)cnc1C(F)(F)F` (racemic) [Compound 223, rac-5-{2-[(2R,5S)-2-[5-Methoxy-6-(trifluoromethyl)pyridin-3-yl]-5-methylpiperidin-1-yl]-2-oxoacetamido}pyridine-3-carboxamide], the IC50 in test [1] (setting [7]) is more than 1000 nM; in test [2] (setting [11]), more than 1000 nM; at PRMT5 [3], more than 500 nM; at PRMT5 [4], 50 to 500 nM; in test [5] (setting [9]), more than 10 µM; on PRMT5 [6] (read-out: No Cofactor/rel IC50), more than 500 nM. Further, the MTAP intact/deleted ratio entry in test [2] (SDMA in-cell western) is on record as “C (an IC50 ratio of less than 3 fold)”.
On to `CCc1cc(NC(=O)C(=O)N2C[C@@H](C)CC[C@@H]2c2ccccc2)cnc1N` (single isomer, unassigned) [Compound 709], for which the IC50 was more than 1000 nM in test [1] (setting [7]); more than 1000 nM in test [2] (setting [11]); more than 500 nM on PRMT5 [3]; 50 to 500 nM at PRMT5 [4]; more than 10 µM in test [5] (setting [12]); more than 500 nM on PRMT5 [6] (read-out: No Cofactor/rel IC50). Also, the MTAP intact/deleted ratio entry in test [2] (SDMA in-cell western) is reported as “C (an IC50 ratio of less than 3 fold)”.
On to `C[C@@H]1CC[C@@H](c2cccc(C#N)c2)N(C(=O)C(=O)Nc2cncc(C(N)=O)c2)C1` (racemic) [Compound 239, rac-5-{2-[(2R,5S)-2-(3-Cyanophenyl)-5-methylpiperidin-1-yl]-2-oxoacetamido}pyridine-3-carboxamide], for which the IC50 in test [1] (setting [7]) was more than 1000 nM; in test [2] (setting [11]), less than 100 nM; on PRMT5 [3], 50 to 500 nM; at PRMT5 [4], less than 50 nM; in test [5] (setting [9]) it was 1 to 10 µM; on PRMT5 [6] (read-out: No Cofactor/rel IC50), 50 to 500 nM. Further, in test [2] (SDMA in-cell western), the MTAP intact/deleted ratio entry is given as “A (an IC50 ratio greater than or equal to 10 fold)”.
For the compound `CCc1cc(NC(=O)C(=O)N2C[C@@H](C)CC[C@@H]2c2ccc(OCCN(C)C)cc2)cnc1N` [Compound 1292, N-(6-amino-5-ethylpyridin-3-yl)-2-((2R,5S)-2-(4-(2-(dimethylamino)ethoxy)phenyl)-5-methylpiperidin-1-yl)-2-oxoacetamide], the IC50 was 100 to 1000 nM in test [1] (setting [7]); less than 100 nM in test [2] (setting [8]); 50 to 500 nM on PRMT5 [3]; less than 50 nM at PRMT5 [4]; less than 1 µM in test [5] (setting [13]); less than 50 nM on PRMT5 [6] (setting [10]). In addition, the “MTAP intact/deleted ratio” value in test [2] (SDMA in-cell western) is “A (an IC50 ratio greater than or equal to 10 fold)”.
Regarding `Cc1cc(NC(=O)C(=O)N2C[C@H](C)CC[C@H]2[C@H]2CC[C@H](O)CC2)cnc1N` (single isomer, unassigned) [Compound 431], the IC50 is more than 1000 nM in test [1] (setting [7]); less than 100 nM in test [2] (setting [11]); 50 to 500 nM on PRMT5 [3]; less than 50 nM on PRMT5 [4]; 1 to 10 µM in test [5] (setting [9]); 50 to 500 nM on PRMT5 [6] (read-out: No Cofactor/rel IC50). The MTAP intact/deleted ratio entry in test [2] (SDMA in-cell western) is reported as “A (an IC50 ratio greater than or equal to 10 fold)”.
In the case of `Cc1cc(NC(=O)C(=O)N2C[C@H](C)CC[C@H]2c2cccc3[nH]cnc23)cnc1N` (single isomer, unassigned) [Compound 949], the IC50 in test [1] (setting [7]) is more than 1000 nM; in test [2] (setting [8]), 100 to 1000 nM; at PRMT5 [3], 50 to 500 nM; on PRMT5 [4] it was less than 50 nM; in test [5] (setting [9]) it was 1 to 10 µM; at PRMT5 [6] (read-out: No Cofactor/rel IC50), 50 to 500 nM. Also, the MTAP intact/deleted ratio result in test [2] (SDMA in-cell western) is given as “A (an IC50 ratio greater than or equal to 10 fold)”.
With `C[C@H]1CC[C@H](c2ccc(-c3cncs3)cc2)N(C(=O)C(=O)Nc2cncc(C(N)=O)c2)C1` (single isomer, unassigned) [Compound 821, 5-(2-(5-methyl-2-(4-(thiazol-5-yl)phenyl)piperidin-1-yl)-2-oxoacetamido)nicotinamide], the IC50 in test [1] (setting [7]) was more than 1000 nM; in test [2] (setting [11]) it was less than 100 nM; at PRMT5 [3], 50 to 500 nM; at PRMT5 [4] it was less than 50 nM; in test [5] (setting [12]), 1 to 10 µM; on PRMT5 [6] (read-out: No Cofactor/rel IC50), 50 to 500 nM. Besides, the MTAP intact/deleted ratio entry in test [2] (SDMA in-cell western) is reported as “A (an IC50 ratio greater than or equal to 10 fold)”.
As to `Cc1cc(NC(=O)C(=O)N2CCC(C(=O)C(C)C)C[C@H]2c2ccc3c(c2)CCC(=O)N3)cnc1N` (mixture of isomers) [Compound 854, N-(6-Amino-5-methyl-3-pyridyl)-2-[(2S)-4-(2-methylpropanoyl)-2-(2-oxo-3,4-dihydro-1H-quinolin-6-yl)-1-piperidyl]-2-oxo-acetamide], the IC50 is more than 1000 nM in test [1] (setting [7]); 100 to 1000 nM in test [2] (setting [11]); 50 to 500 nM at PRMT5 [3]; 50 to 500 nM at PRMT5 [4]; 1 to 10 µM in test [5] (setting [12]); 50 to 500 nM at PRMT5 [6] (read-out: No Cofactor/rel IC50). The MTAP intact/deleted ratio entry in test [2] (SDMA in-cell western) is listed as “A (an IC50 ratio greater than or equal to 10 fold)”.
For the compound `Cc1cc([C@H]2CC[C@H](C)CN2C(=O)C(=O)Nc2cncc(C(N)=O)c2)ccn1` (single isomer, unassigned) [Compound 534], the IC50 was more than 1000 nM in test [1] (setting [7]); 100 to 1000 nM in test [2] (setting [8]); 50 to 500 nM on PRMT5 [3]; less than 50 nM at PRMT5 [4]; 1 to 10 µM in test [5] (Homo sapiens, HAP1, viability IC50, MTAP-deleted cell line); 50 to 500 nM at PRMT5 [6] (read-out: No Cofactor/rel IC50). Besides, in test [2] (SDMA in-cell western), the MTAP intact/deleted ratio entry is given as “A (an IC50 ratio greater than or equal to 10 fold)”.
Regarding `[2H]c1c([2H])c([C@@]2([2H])CC[C@H](C)CN2C(=O)C(=O)Nc2cncc(C(N)=O)c2)c([2H])c([2H])c1F` (racemic) [Compound 1010, 5-(2-(2-(4-fluorophenyl-2,3,5,6-d4)-5-methylpiperidin-1-yl-2-d)-2-oxoacetamido)nicotinamide], the IC50 in test [1] (setting [7]) is more than 1000 nM; in test [2] (setting [8]) it was 100 to 1000 nM; at PRMT5 [3] it was 50 to 500 nM; at PRMT5 [4] it was 50 to 500 nM; in test [5] (setting [9]), 1 to 10 µM; at PRMT5 [6] (read-out: No Cofactor/rel IC50), 50 to 500 nM. For the same compound, the MTAP intact/deleted ratio result in test [2] (SDMA in-cell western) is given as “A (an IC50 ratio greater than or equal to 10 fold)”.
For `Cc1cc(NC(=O)C(=O)N2C[C@H](C)CC[C@H]2c2cccc(N3CCN(C)CC3)c2)cnc1N` (single isomer, unassigned) [Compound 1121], the IC50 in test [1] (setting [7]) was more than 1000 nM; in test [2] (setting [11]), more than 1000 nM; on PRMT5 [3] it was more than 500 nM; on PRMT5 [4] it was more than 500 nM; in test [5] (setting [9]) it was more than 10 µM; at PRMT5 [6] (read-out: No Cofactor/rel IC50), more than 500 nM.
With `C[C@@H]1CC[C@@H]([C@H]2CC[C@H](O)CC2)N(C(=O)C(=O)Nc2cncc(C(N)=O)c2)C1` (single isomer, unassigned) [Compound 395], the IC50 is more than 1000 nM in test [1] (setting [7]); more than 1000 nM in test [2] (setting [11]); more than 500 nM on PRMT5 [3]; more than 500 nM at PRMT5 [4]; more than 10 µM in test [5] (setting [9]); more than 500 nM at PRMT5 [6] (read-out: No Cofactor/rel IC50). The MTAP intact/deleted ratio entry in test [2] (SDMA in-cell western) is “C (an IC50 ratio of less than 3 fold)”.
On to `Cc1cc(NC(=O)C(=O)N2C[C@@H](C)CC[C@@H]2c2cc3cn[nH]c3s2)cnc1N` (single isomer, unassigned) [Compound 1392], for which the IC50 was 100 to 1000 nM in test [1] (setting [7]); less than 100 nM in test [2] (setting [8]); 50 to 500 nM at PRMT5 [3]; less than 50 nM on PRMT5 [4]; less than 1 µM in test [5] (setting [13]); 50 to 500 nM on PRMT5 [6] (setting [10]). Besides, in test [2] (SDMA in-cell western), the “MTAP intact/deleted ratio” value is on record as “A (an IC50 ratio greater than or equal to 10 fold)”.
